Like-named read-outs stand apart in the source and are kept apart here.
Key:
15-LO = 15-LO inhibition, cited from earlier work
3T3-L1 cells [1] = experiment: 3T3-L1 cell morphology during adipocyte differentiation; type: cell-based, mouse; conditions: addition at D0, photographs during differentiation
Experimental: (§1) The mouse PA 3T3-L1 cell line (ATCC) is maintained in DMEM (Dulbecco's Modified Eagle's minimal essential Medium) supplemented with 10% FCS, L-glutamine and a penicillin/streptomycin mixture. At confluence (D0), 3T3-L1 cells are differentiated by a two-day treatment with a mixture of dexamethasone (0.1 μM), isobutylmethylxanthine (0.25 mM) and insulin (0.4 μM). Cells are then maintained on insulin for another 14 days until differentiation is complete. Photographs are taken at different times after confluence in order to visually follow the differentiation process.
(§2) PD146176 is added to the 3T3-L1 cells when they reach confluence (D0) and is maintained throughout the differentiation process with replacement every other day at the same time as the insulin.

3T3-L1 cells [2] = experiment: aP2 and LPL expression by RT-QPCR in 3T3-L1 cells during differentiation; type: cell-based, mouse; conditions: addition at D0, starting from D3 of differentiation
Experimental: as §1, §2
Total RNA is extracted at different times during differentiation as described in example 3 and expression of the aP2 and LPL (lipoprotein lipase) genes is analyzed by RT-QPCR according to the method described in example 2 (see Table 9).

[3] = system: human abdominal visceral PA; experiment: aP2 marker expression during differentiation of human abdominal visceral pre-adipocytes (RT-PCR / RT-QPCR); type: cell-based
Experimental: (§3) HWP from Promocell are maintained in PA growth medium (0.4% ECGS/H, 5% FCS, 10 ng/ml EGF, 1 μg/ml hydrocortisone, 50 ng/ml amphotericin B, 50 μg/ml gentamycin) until confluence. When cells reach confluence, they are differentiated for 3 days in PA differentiation medium (8 μg/ml d-biotin, 0.5 μg/ml recombinant human insulin, 400 ng/ml dexamethasone, 44 μg/ml IBMX, 9 ng/ml L-thyroxin, 3 μg/ml ciglitazone, 50 ng/ml amphotericin B, 50 ng/ml gentamycin), then cultured to the terminal differentiation stage in adipocyte nutritive medium (3% FCS, 8 μg/ml d-biotin, 0.5 μg/ml recombinant human insulin, 400 ng/ml dexamethasone, 50 ng/ml amphotericin B, 50 μg/ml gentamycin). PA from Cambrex are maintained in PA growth medium (10% FCS, 100 U/ml penicillin, 100 μg/ml streptomycin) until confluence, then the medium is replaced by differentiation medium (10% FCS, 10 μg/ml recombinant human insulin, 1 μM dexamethasone, 500 μM IBMX, 200 μM indomethacin, 100 U/ml penicillin, 100 μg/ml streptomycin) throughout the differentiation process. Extraction of RNA and Analysis of 15-LO-1 and aP2 Gene Expression by RT-PCR and RT-QPCR
Human abdominal visceral PA from several donors are differentiated as described in example 4. PD146176 diluted in DMSO is added when the PA reached confluence (D0) and is maintained in the medium during the differentiation of PA to adipocytes. DMSO at 0.1% final concentration is added to the culture medium as negative control.
aP2 (adipocyte lipid-binding protein), like adiponectin, is a marker of adipocyte differentiation. Total RNA is extracted from the cells at different times during differentiation (D3, D7) as described in example 3 and expression of the aP2 marker is analyzed by RT-PCR or RT-QPCR as described in examples 1 and 2. Relative expression is reported with reference to the day of confluence (D0) and normalized to cyclophilin expression.

3T3-L1 cells [4] = experiment: Quantification of 3T3-L1 differentiation with AdipoRed; type: cell-based, mouse; conditions: addition at D0, starting from D3 of differentiation
Experimental: as §1, §2
The gradual accumulation of intracellular droplets is also used as a functional marker of differentiation to adipocytes. To quantify this accumulation the 3T3-L1 cells are differentiated in 96-well microtiter plates. The plates are removed from the incubator on the day of the assay in order to reequilibrate to room temperature. The medium is removed, the cells carefully rinsed with 200 μl PBS, and 200 μl PBS are then added to each well followed by 5 μl AdipoRed reagent (Cambrex, Paris, France). The plates are mixed before measuring fluorescence on a fluorimeter at an excitation wavelength of 485 nm and an emission wavelength of 535 nm.

[5] = system: human abdominal visceral PA; experiment: Adiponectin secretion during differentiation of human abdominal visceral pre-adipocytes; type: cell-based; conditions: culture supernatant, D7 of differentiation, treated from D0, PA culture No. 3 passage 4
Experimental: as §3, with “Extraction of RNA and Analysis of 15-LO-1 and aP2 Gene Expression by RT-PCR and RT-QPCR” left out
Adiponectin is a factor secreted by adipocytes and, like aP2, serves as a marker of adipocyte differentiation in our cultures. Adiponectin concentrations is determined in culture supernatants at different times during differentiation using the Quantikine human adiponectin/ACRP30 kit according to the supplier's instructions (R&D, Minneapolis, Minn., USA).

3T3-L1 cells [6] = experiment: Assay of intracellular triglycerides in 3T3-L1 cells; type: cell-based, mouse
Experimental: The mouse PA 3T3-L1 cell line (ATCC) is maintained in DMEM (Dulbecco's Modified Eagle's minimal essential Medium) supplemented with 10% FCS, L-glutamine and a penicillin/streptomycin mixture. At confluence (D0), 3T3-L1 cells are differentiated by a two-day treatment with a mixture of dexamethasone (0.1 μM), isobutylmethylxanthine (0.25 mM) and insulin (0.4 μM). Cells are then maintained on insulin for another 14 days until differentiation is complete. Photographs are taken at different times after confluence in order to visually follow the differentiation process. PD146176 is added to the 3T3-L1 cells when they reach confluence (D0) and is maintained throughout the differentiation process with replacement every other day at the same time as the insulin. To assay intracellular triglycerides, the 3T3-L1 cells are differentiated in 24-well microtiter plates. Cells are washed three times in PBS, then 500 μl of homogenization buffer (150 mM NaCl, Tris HCL pH 8, 0.1% Triton X-100) are added to each well. The cells are scraped into a tube and lysed by sonication for 10 seconds at 40 watts. The lysate is then filtered on a 0.2 μM millipore filter. The assay is carried out on 125 μl of the resulting lysate using the Triglyceride L-type kit (Wako). The assay is normalized for the protein content of the lysates.

rat PA [7] = experiment: aP2 expression in rat primary PA during adipocyte differentiation; type: cell-based; conditions: 2.2 μM added at D0, read at D3
Experimental: (§4) Cells from the VS fraction (isolated by the same method as that described in example 3) are seeded in 6-well plates at a density of 80,000 cells/cm^2 in medium 199 (Gibco) supplemented with 10% FCS and a penicillin/streptomycin mixture. After a 16-hour incubation to allow cell adherence, the wells are gently rinsed with PBS to remove any non-adherent material. The cells are grown to confluence (D0) at which time the medium 199 is removed and replaced by ITT medium (DME/Ham's F12, 15 mM NaHCO3, 15 mM Hepes, 33 μm biotin, 17 μM panthotenate, 0.5 μM human insulin, 0.2 nM triiodothyronine and antibiotics) without addition of serum. Cells are maintained in this medium to enable differentiation; the medium is changed every 2-3 days during the differentiation process.
Caffeic acid (2.2 μM) was added when the rat PA reach confluence (D0) and is maintained during the adipocyte differentiation process. At a concentration of 2.2 μM, caffeic acid is considered as a selective inhibitor of 15-LO (Shureiqi I, Chen D, Lee J J, Yang P, Newman R A, Brenner D E, Lotan R, Fischer S M and Lippman S M, 2000). […]
Total RNA is extracted at different times during differentiation according to the method described in example 3 and aP2 and LPL gene expression is analyzed by quantitative RT-PCR as described in example 2 (see Table 10).

rat PA [8] = experiment: Rat primary PA morphology during adipocyte differentiation; type: cell-based; conditions: 2.2 μM added at D0
Experimental: as §4
Caffeic acid (2.2 μM) was added when the rat PA reach confluence (D0) and is maintained during the adipocyte differentiation process. At a concentration of 2.2 μM, caffeic acid is considered as a selective inhibitor of 15-LO (Shureiqi I, Chen D, Lee J J, Yang P, Newman R A, Brenner D E, Lotan R, Fischer S M and Lippman S M, 2000). DMSO is added to 0.1% final concentration to the culture medium as negative control.

[9] = value quoted from prior patents

COc1ccc(C(=O)Nc2ccc(Cl)c(Cl)c2)cc1N [3-amino-N-(3,4-dichlorophenyl)-4-methoxy-benzamide]
IC50 (15-LO; [9]): 10 nM

c1ccc2c(c1)SCc1c-2[nH]c2ccccc12 [PD146176, 6,11-dihydro-5-thia-11-aza-benzo[a]-fluorene]
lipid accumulation in the cells (morphology) (3T3-L1 cells [1]): dose-dependent inhibition of lipid accumulation
expression of LPL marker (3T3-L1 cells [2]): dose-dependent decrease
expression of aP2 marker (3T3-L1 cells [2]): dose-dependent decrease
expression of the aP2 marker ([3]; RT-PCR, D3 of differentiation, PA culture No. 1 passage 7, increasing concentrations added at D0): decreases the expression of the aP2 marker in a dose-dependent manner
inhibition of 15-LO-1 expression ([3]; RT-QPCR, D7, 3 μM from D0, PA culture No. 2): almost completely
inhibition of 15-LO-1 expression ([3]; RT-QPCR, D7, 3 μM from D0, PA culture No. 3): 90%
aP2 expression ([3]; RT-QPCR, D7 of differentiation, 3 μM from D0, PA cultures No. 2 and No. 3, vs DMSO-treated or untreated cells): strongly inhibited
AdipoRed staining (3T3-L1 cells [4]): sharply decreases AdipoRed staining in a dose-dependent manner
adiponectin secretion [5]: sharply decreased
IC50 (15-LO; value quoted from prior literature/patents): 500 to 800 nM
IC50 (15-LO; [9]): 200 nM
decrease in triglyceride accumulation relative to the control (3T3-L1 cells [6]; 10 μM, D10): 80%
triglyceride accumulation (3T3-L1 cells [6]; addition at D0): dose-dependent decrease

COc1ccc(-c2cc3cc(F)c(F)cc3[nH]2)cc1NS(=O)(=O)NC(=O)OCC(C)C [[[[5-(5,6-difluoro-1H-indol-2-yl)-2-methoxyphenyl]amino]sulfonyl]carabamic acid isobutyl ester]
IC50 (15-LO; [9]): 14 nM

O=C(O)/C=C/c1ccc(O)c(O)c1 [caffeic acid]
aP2 expression (rat PA [7]): decreases aP2 expression
lipid accumulation in the cells (morphology) (rat PA [8]): inhibition of lipid accumulation

From US8048900B2, “Use of 15-lipoxygenase inhibitors for treating obesity” (Genfit S.A., priority 2006, dated 2011)
